Marks after values point to notes of the source that are not given here.
Experiments:
[1] = test system: FUUR1, MoJo, SYO1 and HSSY1 cancer cell lines; test: MTT viability/proliferation assay on cancer cell lines (Example 2); type: cell-based; conditions: all cell lines tested (FUUR1, MoJo, SYO1, HSSY1); multiple concentrations; FIG. 11
Source text: (§1) The viability of several different cancer cell lines including FUUR1, MoJo, SYO1, and the sarcoma cell line HSSY1 using the MTT assay across multiple concentrations and time points and compared with native Ang 1-7 as positive control and Ang II as negative control. The impact of Mas receptor activation by Ang peptide conjugate on gene expression of different components of the RAS, such as ACE1, ACE2, AT1R. Mas receptor was also studied using quantitative PCR using the different cancerous cell lines.

[2] = test system: mRNA of RAS components (ACE, ACE2, AT1R, Mas receptor) in cancer cell line HSSY1; test: Quantitative PCR of RAS component gene expression; type: cell-based; conditions: FIG. 12
Source text: as §1

osteosarcoma tumors = test: Osteosarcoma tumor-bearing mouse model, tumor size; type: in vivo, mice; conditions: s.c. twice daily, equivalent dose of Ang 1-7 of 400 μg/kg, three weeks; FIG. 13
Procedure: The Ang peptide conjugate described in Example 1 was examined for inhibition of the RAS in an advanced form of osteosarcoma. For the in vivo study, a group of mice bearing osteosarcoma tumors was divided into three different groups and subcutaneously dosed twice daily with vehicle (PEG 400: normal Saline, 3:2), Ang 1-7, or Ang peptide conjugate (equivalent dose of Ang 1-7 of 400 μg/kg) for three weeks. The tumor size was measured three times a week. Tumor tissues were harvested and kept in appropriate medium in −80° C. for further analysis of different cancer biomarkers.

[3] = test system: adjuvant-induced arthritis; test: Adjuvant-induced arthritis rat model (body weight, paw and joint diameters, plasma NO); type: in vivo, male Sprague Dawley rats; conditions: for inflammation and swelling of paws and joints (in words): preventive and treatment groups; for Mean body weight (SD); body weight gain (%) compared with day 1 / Mean body weight (SD); body weight gain (%) after 7 days of dosing: inflamed animals
Procedure: (§2) The Ang peptide conjugate described in Example 1 was examined for anti-inflammatory effect on adjuvant-induced arthritis in a rat animal model. On day one, for induction of adjuvant arthritis, male Sprague Dawley rats were injected at the tail base with 0.2 mL of 50 mg/mL Mycobacterium butyricum. Arthritic animals were divided into 4 groups and treated with saline, Ang II, Ang 1-7 or Ang peptide conjugate. A group of healthy rats received vehicle as control group. Preventive and treatment groups subcutaneously received 200 μg/kg equitant dose daily from day one for 3 weeks or after emergence of arthritis for 1 week, respectively. Animals were monitored daily for their body weight, paw and joint diameters. Animals were then euthanized, plasma/tissues were harvested and analyzed for plasma nitric oxide (NO), and the RAS components.

[4] = test system: cardiac ACE2, ACE and Mas receptor expression; test: Cardiac RAS component expression in adjuvant-induced arthritis rats; type: in vivo; conditions: for cardiac ACE2/ACE ratio: preventive treatment, FIG. 16, 17; for cardiac Mas receptor expression: treatment after establishment of inflammation, FIG. 18, 19
Procedure: as §2, with “On” for “The Ang peptide conjugate described in Example 1 was examined for anti-inflammatory effect on adjuvant-induced arthritis in a rat animal model. On”

[5] = test system: synovial sarcoma cell lines SYO1 and MoJo, renal carcinoma cell line FUUR1; test: In vitro cell viability / anti-proliferative activity on cancer cell lines (Example 1); type: cell-based; conditions: various concentrations, FIG. 6-8
Procedure: Upon confirmation of final chemical structure of the active conjugates, the anti-proliferative activity was tested using different cancer cell lines, including synovial sarcoma cell lines SYO1 and MoJo, and the renal carcinoma cell line FUUR1. Results comparing the percent viability of the tested cell lines upon incubation with AngII, Ang1-7, or the Ang peptide conjugate are provided in FIG. 6 (SYO1), FIG. 7 (MoJo) and FIG. 8 (FUUR1). The cell lines were incubated with concentrations of the tested materials at various concentrations, as shown.

[6] = Pharmacokinetic study, plasma half-life; type: in vivo, rats
Procedure: (§3) Pharmacokinetic studies were conducted using rats for calculation of biological half-life and other pharmacokinetic parameters of the conjugates in comparison with native peptides. The tissue distribution of conjugates was conducted on main organs, such as bone (major target), heart, liver, kidney, lung, etc.

[7] = Tissue distribution of radiolabeled peptides; type: in vivo; conditions: rats, i.v. or s.c.; FIG. 9
Procedure: as §3

[8] = Stability of the conjugate in solution by HPLC-UV; type: physicochemical
Procedure: At 1, 3, 7, 10, 15, 30 days; 100 μL of the solutions were sampled and after adding stable Ang II as internal standard samples analyzed by HPLC-UV to monitor the stability of the conjugate over time. Table 3, below, provides the percent of the Ang peptide conjugate remaining in each sample after storage for 4 weeks.

[9] = preventive arm, compared with day 1
[10] = treatment arm, after 7 days of dosing

**Q.** With “Angiotensin 1-7 (DRVYIHP) [Ang 1-7, reference compound]” as the substance, how does the “effect on cell proliferation” value [1] read?
**A.** significant concentration dependent decrease on cell proliferation

**Q.** What about the ACE2 gene expression [2] of the same substance?
**A.** did not significantly change

**Q.** And the ACE gene expression [2]?
**A.** very large effect

**Q.** And the AT1R gene expression [2]?
**A.** did not significantly change

**Q.** What about the “Mas receptor gene expression” value [2] of the same substance?
**A.** did not significantly change

**Q.** What about the tumor growth inhibition (osteosarcoma tumors) of the same substance?
**A.** milder effect after 10 days

**Q.** And the “inflammation and swelling of paws and joints (in words)” value [3]?
**A.** reduced the inflammation and swelling to a comparable level with the control group

**Q.** And the “Difference vs. Inf- Vehicle in body weight gain (%)” value [3, 9]?
**A.** 4.78%

**Q.** And the “Mean body weight (SD); body weight gain (%) compared with day 1” value ([3]; preventive arm)?
**A.** 13.6 (8.8) %

**Q.** And the “Difference vs. Inf- Vehicle in body weight gain (%)” value [3, 10]?
**A.** 5.7%

**Q.** And the “Mean body weight (SD); body weight gain (%) after 7 days of dosing” value ([3]; treatment arm)?
**A.** 10.0 (4.8) * %

**Q.** And the “cardiac ACE2/ACE ratio” value [4]?
**A.** restored this balance

**Q.** What about the “cardiac Mas receptor expression” value [4] of the same substance?
**A.** restored this balance

**Q.** Which results are given for “Ang peptide conjugate: Ang 1-7 peptide bonded at N-terminus to 27-mer mono-disperse PEG(maleimide)2 spacer conjugated with a thiol-bisphosphonate”?
**A.** cell viability compared with native peptides [5]: superior activity; increase in plasma half-life as compared to the native peptide ([6]; after intravenous administration): 10 fold; increase in half-life as compared to the native peptide ([6]; after subcutaneous injection): 15 fold; half-life compared with native peptides ([6]; rats, FIG. 10): longer half-life; tissue distribution compared with native peptides [7]: higher affinity to thyroid and bone; effect on cell proliferation [1]: anti-proliferative effect was more pronounced; ACE2 gene expression [2]: significantly higher; ACE gene expression [2]: enhanced to some level; AT1R gene expression [2]: enhanced to some level; Mas receptor gene expression [2]: significantly higher; tumor growth inhibition (osteosarcoma tumors): potently inhibited tumor growth after 3-4 days; inflammation and swelling of paws and joints (in words) [3]: reduced the inflammation and swelling to a comparable level with the control group; Difference vs. Inf- Vehicle in body weight gain (%) [3, 9]: 6.22%; Mean body weight (SD); body weight gain (%) compared with day 1 ([3]; preventive arm): 15.1 (12.0) %; plasma level of NO ([3]; preventive arm, 200 μg/kg s.c. daily from day one for 3 weeks, FIG. 14): reduce the elevated plasma level of NO; Difference vs. Inf- Vehicle in body weight gain (%) [3, 10]: 3.0%; Mean body weight (SD); body weight gain (%) after 7 days of dosing ([3]; treatment arm): 7.3 (4.3) * %; plasma level of NO ([3]; treatment arm, 200 μg/kg s.c. daily for 1 week after emergence of arthritis, FIG. 15): reduce the elevated plasma level of NO; cardiac ACE2/ACE ratio [4]: restored this balance; cardiac Mas receptor expression [4]: restored this balance; percent of conjugate remaining ([8]; Acetate buffer (pH 5.5), 4 °C, 5 days): 98.4%; percent of conjugate remaining ([8]; Acetate buffer (pH 5.5), 4 °C, 28 days): 98.0%; percent of conjugate remaining ([8]; Acetate buffer (pH 5.5), 25 °C, 5 days): 94.3%; percent of conjugate remaining ([8]; Acetate buffer (pH 5.5), 25 °C, 28 days): 93.3%; percent of conjugate remaining ([8]; Acetate buffer (pH 5.5), −20 °C, 5 days): 99.8%; percent of conjugate remaining ([8]; Acetate buffer (pH 5.5), −20 °C, 28 days): 99.5%; percent of conjugate remaining ([8]; D. D. Water (pH 6.5), 4 °C, 5 days): 95.9%; percent of conjugate remaining ([8]; D. D. Water (pH 6.5), 4 °C, 28 days): 92.4%; percent of conjugate remaining ([8]; D. D. Water (pH 6.5), 25 °C, 5 days): 90.6%; percent of conjugate remaining ([8]; D. D. Water (pH 6.5), 25 °C, 28 days): 64.0%; percent of conjugate remaining ([8]; D. D. Water (pH 6.5), −20 °C, 5 days): 99.5%; percent of conjugate remaining ([8]; D. D. Water (pH 6.5), −20 °C, 28 days): 99.1%; percent of conjugate remaining ([8]; Phosphate buffer (pH 7.4), 4 °C, 5 days): 91.9%; percent of conjugate remaining ([8]; Phosphate buffer (pH 7.4), 4 °C, 28 days): 79.2%; percent of conjugate remaining ([8]; Phosphate buffer (pH 7.4), 25 °C, 5 days): 72.8%; percent of conjugate remaining ([8]; Phosphate buffer (pH 7.4), 25 °C, 28 days): 22.6%; percent of conjugate remaining ([8]; Phosphate buffer (pH 7.4), −20 °C, 5 days): 99.2%; percent of conjugate remaining ([8]; Phosphate buffer (pH 7.4), −20 °C, 28 days): 98.9%

**Q.** Which results are given for “Angiotensin II (DRVYIHPF; Angiotensin-2; UniProt P01019 25-32, looked up) [Ang II, native Angiotensin II peptide, pro-inflammatory agent, negative control]”?
**A.** effect on cell proliferation [1]: remarkable proliferative effect; inflammation and swelling of paws and joints (in words) [3]: made the situation worse; Difference vs. Inf- Vehicle in body weight gain (%) [3, 9]: 4.32%; Mean body weight (SD); body weight gain (%) compared with day 1 ([3]; preventive arm): 13.2 (3.1) %
